# Reference: patent publication US5792635A, “Method of inhibiting the sodium/proton exchanger NHE3 and method of inhibiting growth by administering squalamine” (priority 1995, dated 1998)
# Entries after “also recorded” stand apart in the source; their conditions may differ.
# Assays:
# [1] = tested on: vitelline capillaries of 3- to 5-day chick embryo; assay: Chick embryo vitelline capillary regression assay; format: in vivo
# Protocol: Using the chick embryo vitelline capillaries assay, compounds were tested for their ability to induce capillary regression. Each compound was applied in 0.1 ml of 15% Ficol 400 and PBS onto the embryo, and vascular regression was assessed after 60 minutes.
# The 3-day chick embryo consists of an embryonic disc from which numerous vessels emerge and return, forming a "figure 8"-shaped structure--the embryo in the center with vascular loops extending outward over both poles. […] Following a lag period of around 15 minutes, the constriction of continuity between capillary and secondary vessels, generally on the "venous" side, was observed. Continued pulsatile blood flow progressed, resulting in a "swelling" of the blind tube, followed by a pinching off of the remaining connection and formation of an enclosed vascular sac resembling a "blood island." This process progressed until only the largest vessels remained intact.
# [2] = tested on: B16 melanoma; assay: Synergistic inhibition of tumor growth, B16 melanoma in mice; format: in vivo, mouse; details: squalamine 15 mg/kg/day; compound 1436 tolerable schedule
# Protocol: Based on the idea that tumor growth involves both the clonal expansion of a malignant cell along with the development of a supporting vascular supply, a combination of compound 1436 with squalamine was tested to determine whether it would achieve a synergistic effect on solid tumor growth. This concept was evaluated in the B16 melanoma model.
# Animals were implanted with B16 melanoma followed by treatment with compound 1436 or 1256 administered in a combined schedule or separately. […] Thus, a combination of these two compounds achieves a therapeutic benefit in tumors dependent on neovascularization that may prevent metastatic spread.
# [3] = tested on: human NHE1; assay: Inhibition of NHE1 in PS120 fibroblasts transfected with human NHE1, internal pH by BCECF-AM; format: cell-based; details: 5 μg/ml; acid-preloaded; FIG. 2B
# Protocol: (§1) PS120 fibroblasts transfected with rabbit or human NHE1 were grown as described above.
# [4] = tested on: Xenopus tadpoles; assay: Tadpole assay; details: 10 μg/ml
# [5] = tested on: B16 melanoma; assay: Suppression of growth of B16 melanoma in C57B mice; format: in vivo, mouse
# Protocol: The growth of B16 melanoma in C57B mice is dependent upon neovascularization.
# Using the growth of B16 melanoma cells in C57B mice, a recognized model for the evaluation of inhibitors of angiogenesis on the growth of cancers, the effects of subcutaneous, intraperitoneal and oral administration of squalamine were evaluated.
# [6] = tested on: B16; assay: Cytostatic activity against B16 in culture; format: cell-based, murine; details: except at very high concentrations
# [7] = target: rabbit NHE3 (Oryctolagus cuniculus, UniProt P26432); details: 5 μg/ml
# rabbit NHE3, sequence (P26432 30-832): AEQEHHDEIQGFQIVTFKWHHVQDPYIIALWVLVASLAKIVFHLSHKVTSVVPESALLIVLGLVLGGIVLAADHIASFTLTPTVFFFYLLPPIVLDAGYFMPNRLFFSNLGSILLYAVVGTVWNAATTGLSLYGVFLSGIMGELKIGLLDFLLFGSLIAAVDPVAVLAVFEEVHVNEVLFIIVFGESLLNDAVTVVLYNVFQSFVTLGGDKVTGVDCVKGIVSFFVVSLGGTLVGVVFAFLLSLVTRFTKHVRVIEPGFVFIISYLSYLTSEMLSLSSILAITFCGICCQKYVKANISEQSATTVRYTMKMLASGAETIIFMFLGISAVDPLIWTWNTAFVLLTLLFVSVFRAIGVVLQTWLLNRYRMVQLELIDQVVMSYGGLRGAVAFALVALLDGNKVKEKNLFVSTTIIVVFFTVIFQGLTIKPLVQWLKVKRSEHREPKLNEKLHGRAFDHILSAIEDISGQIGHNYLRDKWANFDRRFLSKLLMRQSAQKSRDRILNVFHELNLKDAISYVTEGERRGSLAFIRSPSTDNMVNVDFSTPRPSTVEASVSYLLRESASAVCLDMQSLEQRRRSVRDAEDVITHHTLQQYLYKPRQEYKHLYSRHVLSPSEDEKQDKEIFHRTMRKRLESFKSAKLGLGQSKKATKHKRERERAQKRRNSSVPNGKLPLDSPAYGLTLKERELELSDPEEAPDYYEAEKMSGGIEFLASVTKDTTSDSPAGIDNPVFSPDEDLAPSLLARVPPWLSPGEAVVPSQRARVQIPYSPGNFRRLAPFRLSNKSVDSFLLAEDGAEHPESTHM
# Protocol: Internal pH was measured either following acid loading or in the absence of an acid-loading challenge, with the results shown in FIGS. 1A and 1B.
# Specifically, PS120 fibroblasts transfected with rabbit NHE3 were grown in supplemented Dulbecco's-modified Eagle's medium as described by Levine et al., J. Biol. Chem. 268, 1993, 25527-25535. […] For cells not acid-preloaded, the actual internal pH value was monitored as a function of time following addition of squalamine, with the results depicted in FIG. 1B.
# PS120 fibroblasts transfected with rabbit NHE3 were grown and acid preloaded by exposure to 40 mM NH4 Cl as described above in conjunction with FIGS. 1A and 1B. Internal cellular pH changes expressed as the rate of pH recovery as a function of restored extracellular sodium ion concentration following exposure to 10 μg/ml of the compound were assayed with the fluorescent dye BCECF-AM as described above.
# [8] = tested on: human coronary artery smooth muscle; assay: Proliferation of human coronary artery smooth muscle in vitro; format: cell-based; details: FIG. 15
# From the text: Aminosterols of the invention may also have utility in inhibiting the growth factor mediated proliferation of smooth muscle within the artery. Following coronary angioplasty, reocclusion commonly occurs, secondary to reparative proliferation of the vascular smooth muscle within the wall of the surgically manipulated blood vessel. This process generally takes place over the course of 7-10 days. To evaluate whether an agent could prevent the growth factor mediated proliferation of smooth muscle within the artery, compound 1436 was evaluated in vitro for its effect on the proliferation of human coronary artery smooth muscle. Results for compound 1436 are shown in FIG. 13, and those for squalamine are shown in FIG. 14, with FIG. 15 being a composite logarithmic plot.
# [9] = tested on: human T-cells; assay: Inhibition of PHA-stimulated human lymphocytes; format: cell-based; details: 10 μg/ml
# From the text: Results are tabulated below.
# [10] = tested on: chick chorioallantoic membrane; assay: Chorioallantoic membrane (CAM) model, inhibition of capillary growth; format: in vivo
# From the text: The growing capillaries within the chorioallantoic membrane model (CAM model) have been used as a system in which to evaluate the effect of agents on their potential to inhibit new vessel growth. Neovascularization occurs most aggressively over the first week of embryonic development. Thereafter capillary growth is characterized by principally "elongation" rather than "de novo" formation.
# In the standard assay, agents are applied locally to a region of the embryo over which neovascularization will occur. Agents are assessed by their ability to inhibit this process, as evaluated by visual examination about 7 days after application. […] The assay utilized is described in detail in Auerbach et al., Pharm. Ther. 51, 1991, 1-11.
# [11] = tested on: bacteria, fungi and protozoa; details: in words; cited from earlier work
# [12] = tested on: melanoma 1205Lu; assay: Suppression of growth of human melanoma 1205Lu in RAG-1 mice; format: in vivo, mouse (human tumor)
# From the text: As apparent from FIG. 5, melanoma 1205Lu develops aggressively in RAG-1 mice after implantation.
# [13] = tested on: human umbilical venous endothelial cells; assay: LPS-/TNF-α-induced neutrophil adherence; format: cell-based; details: 10 μg, 1.0 μg, or 0.1 μg; three different subjects
# From the text: Methods 109, 1988, 175-184.
# [14] = tested on: rabbit NHE1; assay: Inhibition of NHE1 in PS120 fibroblasts transfected with rabbit NHE1, internal pH by BCECF-AM; format: cell-based; details: 5 μg/ml; acid-preloaded; FIG. 2A
# Protocol: as §1
structure (smiles),measurement,setting,value
CC(C)[C@@H](CC[C@@H](C)[C@H]1CC[C@H]2[C@@H]3[C@H](O)C[C@H]4C[C@@H](NCCCNCCCCN)CC[C@]4(C)[C@H]3CC[C@]12C)OS(=O)(=O)O [Squalamine],effect on vitelline capillaries,[1]; 3- to 5-day chick embryos,disrupt vitelline capillaries
same,lag period before constriction between capillary and secondary vessels,[1]; 3-day chick embryo,around 15 minutes
same,activity in vitelline capillary regression assay,[1]; Table 5,especially active
same,embryonic heart beat,[1]; chick embryo,continued to beat vigorously
same,hemorrhage,[1]; chick embryo,No hemorrhage was seen
same,hemolysis,"[1]; chick embryo, microscopic",absence of hemolysis
same,effect of single agent versus combination,[2],Neither administration of squalamine at 15 mg/kg/day nor compound 1436 alone in a tolerable schedule could achieve this effect
same,inhibitory activity against human NHE1,[3],no inhibitory activity
same,death / lethality time,[4],≤ 2 h
same,observed response in tadpole,[4]; stage 59-60 Xenopus,blood flow through the capillaries of the tail shut down; also recorded: unaltered blood flow through the fine capillaries of the hands and feet; also recorded: common vascular occlusive effect; also recorded: Vascular occlusion in fine capillaries of tail. No effect on vascular flow through hands or feet
same,body weight and hematologic parameters,[5]; B16-bearing C57B mice,no significant depression
same,suppression of B16 tumor volume,"[5]; intraperitoneal, FIG. 4B",dose-dependent suppression of tumor volume
same,suppression of B16 tumor volume,"[5]; oral, FIG. 4C",dose-dependent suppression of tumor volume
same,suppression of B16 tumor volume,"[5]; subcutaneous, FIG. 4A",dose-dependent suppression of tumor volume
same,cytostatic activity against B16 in culture,[6],minimal cytostatic activity
same,inhibition of NHE3 (Km and Vmax),"[7]; FIG. 1A, 1B",inhibited NHE3 with respect to proton concentration at both Km and Vmax levels
same,resting internal pH,"[7]; not acid-preloaded, FIG. 1B",the resting pH of these cells was also inhibited
same,suppression of growth of human coronary artery smooth muscle,[8],suppress in vitro the growth of human coronary artery smooth muscle
same,"inhibition of blast transformation, in words",[9],Some effect
same,positive (fraction printed under Percentage positive),"[10]; 13-day embryo, 5.0 μg applied",0/26
same,anti-angiogenic activity in CAM,[10]; in words,"potent but specific inhibitory activity, equal in potency to the most active compounds described to date in the literature"
same,inhibitory effect on 13-day chick,"[10]; ten times 0.65 μg, 13-day old chick",no inhibitory effect
same,antibiotic activity,[11],"broad-spectrum antibiotic, killing bacteria, fungi and protozoa"
same,suppression of melanoma 1205Lu growth,"[12]; 10, 20, 40 mg/kg/d, FIG. 5",suppress the growth of melanoma 1205Lu in RAG-1 mice in a dose-dependent fashion
same,reversibility after cessation of treatment,[12]; RAG-1 mice,reversible
same,inhibition of neutrophil adherence,[13],no inhibition
same,inhibitory activity against rabbit NHE1,[14],no inhibitory activity
